# Measurements as given in paper PMC11606603, “The membrane domains of mammalian adenylyl cyclases are lipid receptors” (eLife, 2024).
# Where “and” joins values, the source holds several entries; their conditions need not be identical. Identical values can stand only once. Entries after “also recorded” stand apart in the source; their conditions may differ.
# Legend:
# Assay type in all cases: biochemical
# [1] = target: T1, mAC3 (Homo sapiens, UniProt O60266); test: AC assay, Gsα-stimulated mAC3 in membranes from transfected HEK293 cells; details: for mAC3 activity [%] (100% = 300nM Gsα stimulation): individual experiments
# T1 construct: Human mAC genes were from GenScript and fitted with a C-terminal FLAG-tag; FLAG (C); made in house; host or cells: HEK293, permanently transfected; membrane preparation
# Procedure, shortened: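 cAMP formation was quantified by HTRF against a cAMP standard curve, with EC50 or IC50 derived by curve fitting. Reactions contained 1 mM ATP, 2 mM MgCl2, 3 mM creatine phosphate, 60 μg/ml creatine kinase and 50 mM MOPS pH 7.5, using membranes of stably transfected HEK293 cells carrying FLAG-tagged human AC.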
# [2] = target: T2, mAC8 (Homo sapiens, UniProt P40145); test: AC assay, Gsα-stimulated mAC8 in membranes from transfected HEK293 cells; details: 20µM fatty acid concentration
# T2 construct: Human mAC genes were from GenScript and fitted with a C-terminal FLAG-tag; FLAG (C); made in house; host or cells: HEK293, permanently transfected; membrane preparation
# T2 sequence (P40145 whole entry): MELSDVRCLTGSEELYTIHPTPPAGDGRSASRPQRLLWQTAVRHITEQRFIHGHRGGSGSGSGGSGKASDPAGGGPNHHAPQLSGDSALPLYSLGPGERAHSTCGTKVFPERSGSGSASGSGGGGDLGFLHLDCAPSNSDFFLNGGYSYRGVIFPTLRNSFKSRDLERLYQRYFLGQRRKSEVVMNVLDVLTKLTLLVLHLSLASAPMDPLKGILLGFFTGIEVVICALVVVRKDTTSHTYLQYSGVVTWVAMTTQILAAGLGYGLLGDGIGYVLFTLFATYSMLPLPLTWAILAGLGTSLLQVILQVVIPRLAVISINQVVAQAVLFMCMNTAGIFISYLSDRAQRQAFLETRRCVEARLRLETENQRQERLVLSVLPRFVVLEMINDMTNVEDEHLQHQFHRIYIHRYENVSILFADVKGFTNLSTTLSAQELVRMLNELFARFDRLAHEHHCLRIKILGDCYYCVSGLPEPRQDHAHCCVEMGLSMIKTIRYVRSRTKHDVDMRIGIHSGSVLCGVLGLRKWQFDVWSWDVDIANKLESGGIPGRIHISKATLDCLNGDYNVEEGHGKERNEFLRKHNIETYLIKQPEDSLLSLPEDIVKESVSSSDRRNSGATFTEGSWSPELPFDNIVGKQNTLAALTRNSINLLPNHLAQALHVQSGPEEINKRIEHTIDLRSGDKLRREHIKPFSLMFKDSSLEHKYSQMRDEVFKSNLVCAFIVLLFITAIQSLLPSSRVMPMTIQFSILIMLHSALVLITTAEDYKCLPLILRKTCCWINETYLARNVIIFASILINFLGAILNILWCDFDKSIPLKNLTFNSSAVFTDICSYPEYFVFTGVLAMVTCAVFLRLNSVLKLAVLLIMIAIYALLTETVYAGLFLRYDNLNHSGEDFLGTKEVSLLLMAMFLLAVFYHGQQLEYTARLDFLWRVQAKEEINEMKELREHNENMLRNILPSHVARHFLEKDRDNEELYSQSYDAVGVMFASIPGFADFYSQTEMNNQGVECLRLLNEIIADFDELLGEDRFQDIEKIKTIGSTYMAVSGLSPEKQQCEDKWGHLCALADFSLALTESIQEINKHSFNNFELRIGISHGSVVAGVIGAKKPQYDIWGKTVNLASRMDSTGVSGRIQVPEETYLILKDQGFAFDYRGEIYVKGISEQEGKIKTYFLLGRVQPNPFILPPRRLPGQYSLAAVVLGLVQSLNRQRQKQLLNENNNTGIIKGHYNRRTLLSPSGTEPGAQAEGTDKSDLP
# Procedure, shortened: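 Adenylyl cyclase activity was measured in 100,000 × g membrane fractions prepared from HEK293 cells permanently transfected with C-terminally FLAG-tagged human AC isoforms. Assays contained 1 mM ATP and 2 mM MgCl2 with an ATP-regenerating system at pH 7.5.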
# [3] = target: T3, mAC4 (Homo sapiens, UniProt Q8NFM4); test: AC assay, Gsα-stimulated mAC4 in membranes from transfected HEK293 cells; details: for activity [%] (100% = 300nM Gsα stimulation): mAC4
# T3 construct: Human mAC genes were from GenScript and fitted with a C-terminal FLAG-tag; FLAG (C); made in house; host or cells: HEK293, permanently transfected; membrane preparation
# T3 sequence (Q8NFM4 1-1077): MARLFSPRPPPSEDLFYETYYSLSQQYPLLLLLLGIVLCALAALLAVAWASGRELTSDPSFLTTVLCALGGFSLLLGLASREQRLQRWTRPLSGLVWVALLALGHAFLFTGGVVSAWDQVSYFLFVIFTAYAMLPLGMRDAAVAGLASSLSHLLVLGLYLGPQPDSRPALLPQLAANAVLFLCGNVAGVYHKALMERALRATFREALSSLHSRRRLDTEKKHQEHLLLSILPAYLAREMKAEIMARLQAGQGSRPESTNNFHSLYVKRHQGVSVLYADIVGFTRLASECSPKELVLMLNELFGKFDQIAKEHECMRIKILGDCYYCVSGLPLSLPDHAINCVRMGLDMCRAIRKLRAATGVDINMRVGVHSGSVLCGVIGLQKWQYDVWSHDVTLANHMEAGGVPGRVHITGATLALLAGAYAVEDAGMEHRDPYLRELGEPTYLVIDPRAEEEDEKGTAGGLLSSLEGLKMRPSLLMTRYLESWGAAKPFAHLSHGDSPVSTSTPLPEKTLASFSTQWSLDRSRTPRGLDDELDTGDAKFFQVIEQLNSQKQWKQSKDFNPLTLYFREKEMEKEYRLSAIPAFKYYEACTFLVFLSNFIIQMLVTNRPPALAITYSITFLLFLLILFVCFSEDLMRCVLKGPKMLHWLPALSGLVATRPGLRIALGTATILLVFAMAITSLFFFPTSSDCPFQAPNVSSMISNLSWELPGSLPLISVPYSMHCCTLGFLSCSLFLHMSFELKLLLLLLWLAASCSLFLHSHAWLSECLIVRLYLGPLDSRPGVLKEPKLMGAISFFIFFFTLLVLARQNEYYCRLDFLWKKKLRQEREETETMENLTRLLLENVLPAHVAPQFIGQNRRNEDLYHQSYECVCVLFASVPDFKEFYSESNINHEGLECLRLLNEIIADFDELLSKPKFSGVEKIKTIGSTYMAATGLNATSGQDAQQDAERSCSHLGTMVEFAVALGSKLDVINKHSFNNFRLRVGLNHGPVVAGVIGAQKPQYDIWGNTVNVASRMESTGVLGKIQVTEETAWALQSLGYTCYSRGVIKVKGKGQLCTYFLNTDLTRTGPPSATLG
# Procedure, shortened: (§1)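 EC50 and IC50 values come from cAMP production, read with a Cisbio cAMP kit and converted via a standard curve. Assay mix held 1 mM ATP, 2 mM MgCl2, 3 mM creatine phosphate and 60 μg/ml creatine kinase in 50 mM MOPS pH 7.5, using transfected HEK293 membranes.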
# [4] = target: T4, mAC2 (Homo sapiens, UniProt Q08462); test: AC assay, Gsα-stimulated mAC2 in membranes from transfected HEK293 cells; details: Figure 5-figure supplement 1 left, 20 µM
# T4 construct: Human mAC genes were from GenScript and fitted with a C-terminal FLAG-tag; FLAG (C); made in house; host or cells: HEK293, permanently transfected; membrane preparation
# T4 sequence (Q08462 whole entry): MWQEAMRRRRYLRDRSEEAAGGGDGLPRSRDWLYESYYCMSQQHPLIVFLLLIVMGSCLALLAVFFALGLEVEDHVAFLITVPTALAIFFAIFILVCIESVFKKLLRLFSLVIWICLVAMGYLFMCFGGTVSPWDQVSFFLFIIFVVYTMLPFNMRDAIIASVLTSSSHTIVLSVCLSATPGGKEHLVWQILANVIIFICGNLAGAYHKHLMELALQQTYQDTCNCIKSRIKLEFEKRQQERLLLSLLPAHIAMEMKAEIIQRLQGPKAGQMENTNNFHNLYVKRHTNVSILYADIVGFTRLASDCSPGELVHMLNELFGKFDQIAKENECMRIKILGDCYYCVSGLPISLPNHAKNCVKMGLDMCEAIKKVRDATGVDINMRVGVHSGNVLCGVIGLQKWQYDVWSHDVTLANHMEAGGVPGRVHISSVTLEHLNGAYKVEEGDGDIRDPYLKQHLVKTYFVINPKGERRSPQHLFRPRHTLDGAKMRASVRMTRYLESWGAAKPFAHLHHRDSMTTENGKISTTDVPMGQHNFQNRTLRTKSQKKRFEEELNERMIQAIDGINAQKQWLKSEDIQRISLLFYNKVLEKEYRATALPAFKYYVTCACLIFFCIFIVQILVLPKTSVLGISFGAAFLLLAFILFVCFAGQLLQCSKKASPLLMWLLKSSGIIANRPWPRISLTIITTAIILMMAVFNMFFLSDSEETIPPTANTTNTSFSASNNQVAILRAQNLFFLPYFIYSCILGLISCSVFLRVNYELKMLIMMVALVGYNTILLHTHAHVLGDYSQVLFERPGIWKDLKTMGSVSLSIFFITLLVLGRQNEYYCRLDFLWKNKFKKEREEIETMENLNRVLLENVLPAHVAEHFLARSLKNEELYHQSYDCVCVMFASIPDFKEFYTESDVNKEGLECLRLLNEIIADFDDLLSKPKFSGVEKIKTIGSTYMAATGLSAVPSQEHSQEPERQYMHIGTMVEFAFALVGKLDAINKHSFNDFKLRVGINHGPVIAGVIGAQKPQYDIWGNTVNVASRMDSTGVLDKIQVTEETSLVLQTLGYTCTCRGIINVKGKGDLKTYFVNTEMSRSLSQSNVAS
# T4 sequence (P63092 2-394 Q227L partner): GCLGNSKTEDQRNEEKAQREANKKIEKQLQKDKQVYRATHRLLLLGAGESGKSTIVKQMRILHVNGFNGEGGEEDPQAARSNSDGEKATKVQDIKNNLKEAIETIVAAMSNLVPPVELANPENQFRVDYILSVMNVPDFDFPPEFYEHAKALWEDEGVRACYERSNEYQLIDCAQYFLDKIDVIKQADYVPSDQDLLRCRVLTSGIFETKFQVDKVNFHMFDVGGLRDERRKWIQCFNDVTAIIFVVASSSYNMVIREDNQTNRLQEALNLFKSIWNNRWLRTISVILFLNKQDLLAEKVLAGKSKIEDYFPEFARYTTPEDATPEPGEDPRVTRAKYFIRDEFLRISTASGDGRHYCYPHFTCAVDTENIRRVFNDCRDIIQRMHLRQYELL
# Procedure, shortened: as §1
# [5] = target: T5, mAC1 (Homo sapiens, UniProt Q08828); test: AC assay, Gsα-stimulated mAC1 in membranes from transfected HEK293 cells; details: for activity [%] (100% = 300nM Gsα stimulation): mAC1
# T5 construct: Human mAC genes were from GenScript and fitted with a C-terminal FLAG-tag; FLAG (C); made in house; host or cells: HEK293, permanently transfected; membrane preparation
# T5 sequence (Q08828 whole entry): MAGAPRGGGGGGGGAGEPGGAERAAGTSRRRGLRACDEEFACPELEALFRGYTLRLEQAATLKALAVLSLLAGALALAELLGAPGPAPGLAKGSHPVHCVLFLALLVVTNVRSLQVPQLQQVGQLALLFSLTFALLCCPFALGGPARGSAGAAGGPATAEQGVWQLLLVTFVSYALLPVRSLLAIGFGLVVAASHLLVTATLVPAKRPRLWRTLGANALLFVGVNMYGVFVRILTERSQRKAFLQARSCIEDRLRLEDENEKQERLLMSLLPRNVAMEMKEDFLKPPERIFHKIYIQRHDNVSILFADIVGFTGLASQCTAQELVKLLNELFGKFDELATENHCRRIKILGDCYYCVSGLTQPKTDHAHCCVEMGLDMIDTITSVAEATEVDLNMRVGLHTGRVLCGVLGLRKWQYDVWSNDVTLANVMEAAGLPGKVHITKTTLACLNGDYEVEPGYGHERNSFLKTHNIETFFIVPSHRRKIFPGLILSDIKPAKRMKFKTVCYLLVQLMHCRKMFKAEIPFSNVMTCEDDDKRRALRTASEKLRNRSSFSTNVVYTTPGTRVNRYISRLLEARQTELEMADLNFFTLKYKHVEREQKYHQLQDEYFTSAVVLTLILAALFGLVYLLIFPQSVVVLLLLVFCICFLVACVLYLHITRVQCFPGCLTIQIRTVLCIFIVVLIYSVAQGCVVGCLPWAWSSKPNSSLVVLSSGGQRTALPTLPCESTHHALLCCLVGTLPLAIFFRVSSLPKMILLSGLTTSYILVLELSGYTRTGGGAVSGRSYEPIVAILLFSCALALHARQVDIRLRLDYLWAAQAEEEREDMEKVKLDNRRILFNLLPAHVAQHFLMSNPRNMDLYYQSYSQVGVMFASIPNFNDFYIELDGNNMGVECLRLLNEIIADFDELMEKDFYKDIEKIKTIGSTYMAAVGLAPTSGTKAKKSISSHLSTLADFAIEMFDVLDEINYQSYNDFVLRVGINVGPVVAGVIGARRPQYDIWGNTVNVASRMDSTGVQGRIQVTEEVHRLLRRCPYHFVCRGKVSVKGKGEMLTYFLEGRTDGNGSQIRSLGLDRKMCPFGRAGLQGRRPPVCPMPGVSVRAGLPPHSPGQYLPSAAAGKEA
# Procedure, shortened: as §1
# [6] = target: T6, mAC5 (Homo sapiens, UniProt O95622); test: AC assay, Gsα-stimulated mAC5 in membranes from transfected HEK293 cells
# T6 construct: Human mAC genes were from GenScript and fitted with a C-terminal FLAG-tag; FLAG (C); made in house; host or cells: HEK293, permanently transfected; membrane preparation
# T6 sequence (O95622 whole entry): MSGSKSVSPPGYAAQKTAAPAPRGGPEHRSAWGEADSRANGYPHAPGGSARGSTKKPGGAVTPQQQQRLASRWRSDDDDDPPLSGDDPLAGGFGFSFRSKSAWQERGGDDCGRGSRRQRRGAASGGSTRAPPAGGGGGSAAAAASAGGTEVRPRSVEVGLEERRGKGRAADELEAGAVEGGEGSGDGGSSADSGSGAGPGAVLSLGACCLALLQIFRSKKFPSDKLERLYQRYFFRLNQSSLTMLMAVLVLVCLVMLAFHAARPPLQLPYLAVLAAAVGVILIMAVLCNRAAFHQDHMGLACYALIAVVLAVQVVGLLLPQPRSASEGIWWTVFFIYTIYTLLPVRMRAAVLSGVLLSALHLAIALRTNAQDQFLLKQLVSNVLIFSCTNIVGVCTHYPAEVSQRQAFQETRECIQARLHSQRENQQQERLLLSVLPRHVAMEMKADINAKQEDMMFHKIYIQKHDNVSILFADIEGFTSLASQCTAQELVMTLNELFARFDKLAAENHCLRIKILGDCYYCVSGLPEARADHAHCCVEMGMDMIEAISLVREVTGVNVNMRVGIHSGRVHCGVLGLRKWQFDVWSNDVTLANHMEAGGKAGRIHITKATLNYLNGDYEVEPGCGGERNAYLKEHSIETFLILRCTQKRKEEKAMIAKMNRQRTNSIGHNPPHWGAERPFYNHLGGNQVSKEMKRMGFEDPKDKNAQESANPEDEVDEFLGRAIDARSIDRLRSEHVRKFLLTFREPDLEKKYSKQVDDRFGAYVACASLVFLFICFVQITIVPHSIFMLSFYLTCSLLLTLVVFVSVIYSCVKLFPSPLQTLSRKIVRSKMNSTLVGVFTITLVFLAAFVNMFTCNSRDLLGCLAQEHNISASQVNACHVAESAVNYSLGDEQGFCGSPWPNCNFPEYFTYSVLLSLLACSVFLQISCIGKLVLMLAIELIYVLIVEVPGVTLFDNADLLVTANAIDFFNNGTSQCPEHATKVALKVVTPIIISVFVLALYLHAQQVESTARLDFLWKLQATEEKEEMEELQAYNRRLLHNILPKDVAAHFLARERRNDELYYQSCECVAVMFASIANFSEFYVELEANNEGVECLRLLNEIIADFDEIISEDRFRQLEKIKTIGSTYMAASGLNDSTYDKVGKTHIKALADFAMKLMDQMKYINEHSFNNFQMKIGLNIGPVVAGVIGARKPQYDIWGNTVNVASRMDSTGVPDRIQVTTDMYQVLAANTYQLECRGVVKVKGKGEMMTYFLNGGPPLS
# Procedure, shortened: as §1
# [7] = 6 µM, 300 nM Gsα, single experiments
# [8] = 30 µM, 300 nM Gsα, single experiments
# [9] = 100 µM, 300 nM Gsα, single experiments
# [10] = 20 µM fatty acid, 300 nM Gsα, single experiments
compound,measurement,setting,value
"CCCCC/C=C\C/C=C\C/C=C\C/C=C\CCCC(=O)O [Arachidonic acid, Arachidonic ((5Z,8Z,11Z,14Z)-eicosatetraenoic) acid]",mAC3 activity [%] (100% = 300nM Gsα stimulation),[1]; fatty acid 20 µM,115% and 168% and 182% and 127%
same,mAC8 activity [%] (100% = 300nM Gsα stimulation),[2],90% and 106% and 87%
same,IC50,[3],36 µM
same,Effect of lipid on 300 nM Gsα-stimulated mAC4,"[3]; 20 µM, in words",significantly attenuated
same,activity [%] (100% = 300nM Gsα stimulation),"[3]; 1 µM, 300 nM Gsα, single experiments",68% and 108% and 85% and 103% and 89% and 87% and 67% and 75%
same,activity [%] (100% = 300nM Gsα stimulation),"[3]; 3 µM, 300 nM Gsα, single experiments",72% and 95% and 69% and 73% and 97% and 106% and 108%
same,activity [%] (100% = 300nM Gsα stimulation),[3]; [7],70% and 85% and 107% and 83% and 91% and 126%
same,activity [%] (100% = 300nM Gsα stimulation),[3]; [8],84% and 74% and 88%
same,activity [%] (100% = 300nM Gsα stimulation),[3]; [9],22% and 14% and 13%
same,mAC2 activity [%] (100% = 300nM Gsα stimulation); 20µM fatty acid concentration,[4],133% and 137% and 152% and 99% and 147%
same,Effect of lipid on 300 nM Gsα-stimulated mAC1,"[5]; 20 µM, in words",significantly attenuated
same,IC50,"[5]; attenuation of 300 nM Gsα-stimulated activity, read-out: IC50 for mAC1",23 µM
same,activity [%] (100% = 300nM Gsα stimulation),[5]; [7],84% and 119% and 80% and 96% and 100% and 86% and 114% and 97%
same,activity [%] (100% = 300nM Gsα stimulation),[5]; [8],58% and 69% and 46%
same,activity [%] (100% = 300nM Gsα stimulation),"[5]; 60 µM, 300 nM Gsα, single experiments",12% and 11%
same,activity [%] (100% = 300nM Gsα stimulation),[5]; [9],12% and 2% and 3%
same,mAC5 activity [%] (100% = 300nM Gsα stimulation),[6]; 20µM fatty acid concentration,97% and 73% and 120% and 131% and 110%
"CCCCCCCCCCCCCCCCCC(=O)O [Stearic acid, Stearic (octadecanoic) acid]",Effect of lipid on 300 nM Gsα-stimulated mAC3,"[1]; 20 µM, in words",no significant effect; also recorded: inactive
same,mAC3 activity [%] (100% = 300nM Gsα stimulation),[1]; fatty acid 0.5 µM,100%
same,mAC3 activity [%] (100% = 300nM Gsα stimulation),[1]; fatty acid 1 µM,121% and 48% and 49% and 110% and 79%
same,mAC3 activity [%] (100% = 300nM Gsα stimulation),[1]; fatty acid 3 µM,84% and 77% and 52% and 121% and 116%
same,mAC3 activity [%] (100% = 300nM Gsα stimulation),[1]; fatty acid 6 µM,91% and 103% (2×) and 32% and 75%
same,mAC3 activity [%] (100% = 300nM Gsα stimulation),[1]; fatty acid 10 µM,69% and 84% and 76% and 71% and 80% and 79%
same,mAC3 activity [%] (100% = 300nM Gsα stimulation),[1]; fatty acid 20 µM,115% and 83% and 68% and 70% and 65% and 160%
same,mAC8 activity [%] (100% = 300nM Gsα stimulation),[2],107% and 102%
same,mAC4 activity [%] (100% = 300nM Gsα stimulation); 20µM fatty acid concentration,[3]; [10],79% and 60% and 83%
same,mAC2 activity [%] (100% = 300nM Gsα stimulation); 20µM fatty acid concentration,[4],100% and 101% and 84% and 89%
same,mAC1 activity [%] (100% = 300nM Gsα stimulation); 20µM fatty acid concentration,[5]; [10],126% and 77% and 95%
same,mAC5 activity [%] (100% = 300nM Gsα stimulation),[6]; 20µM fatty acid concentration,73% and 93% and 77%
same,mAC5 activity [%] (100% = 300nM Gsα stimulation),"[6]; fatty acid 0.5 µM, individual experiments",100%
same,mAC5 activity [%] (100% = 300nM Gsα stimulation),"[6]; fatty acid 1 µM, individual experiments",134% and 72%
same,mAC5 activity [%] (100% = 300nM Gsα stimulation),"[6]; fatty acid 3 µM, individual experiments",73% and 80% and 162%
same,mAC5 activity [%] (100% = 300nM Gsα stimulation),"[6]; fatty acid 6 µM, individual experiments",124% and 75% and 108% and 125%
same,mAC5 activity [%] (100% = 300nM Gsα stimulation),"[6]; fatty acid 10 µM, individual experiments",73% and 93% and 77%
same,mAC5 activity [%] (100% = 300nM Gsα stimulation),"[6]; fatty acid 20 µM, individual experiments",80% and 91% and 83%
